# Reference: US6581606B2, “Method, apparatus and system for use in treating patient with a drug having an antineoplastic effect to optimize therapy and prevent an adverse drug response” (The Rx Files Corporation, priority 1999, dated 2003)
# Details: human, in vivo
# Method: A current dose of Taxol (paclitaxel) is 375 mg.
# In this case, the prescriber would use the following information for the patient receiving Taxol: Current Dose 375 mg; Current Marker 660 (a unitless marker indicative of the current platelet count); Desired Marker 1,200 (a unitless marker indicative of where the prescriber wants to see the platelet count raised to); Previous Marker 640 (a unitless marker indicative of the patient's previous ANC).
compound,measurement,value
"CC(=O)O[C@H]1C(=O)[C@@]2(C)[C@H]([C@H](OC(=O)c3ccccc3)[C@]3(O)C[C@H](OC(=O)[C@H](O)[C@@H](NC(=O)c4ccccc4)c4ccccc4)C(C)=C1C3(C)C)[C@]1(OC(C)=O)CO[C@@H]1C[C@@H]2O [Taxol, paclitaxel]",Previous Marker (patient's previous ANC),640
